Assay results from the NIST ThermoML archive (doi:10.1021/je900596d).

Conditions: Vibrating tube method

FC(F)=C(F)C(F)(F)F [hexafluoropropene]
Conditions	mass density [kg/m3]
358 K, 4209.5 kPa, Liquid	959.82
358 K, 4244 kPa, Liquid	962.07
358 K, 4311.4 kPa, Liquid	966.64
358 K, 4345.1 kPa, Liquid	968.66
358 K, 4377.8 kPa, Liquid	970.84
358 K, 4412.5 kPa, Liquid	972.94
358 K, 4446.5 kPa, Liquid	974.92
358 K, 4462.6 kPa, Liquid	975.95
358 K, 4478.8 kPa, Liquid	976.81
358 K, 4496.2 kPa, Liquid	977.89
358 K, 4532.3 kPa, Liquid	980.04
358 K, 4565.8 kPa, Liquid	981.81
358 K, 4599.8 kPa, Liquid	983.7
358 K, 4632.6 kPa, Liquid	985.44
358 K, 4668.1 kPa, Liquid	987.45
358 K, 4740 kPa, Liquid	991.23
358 K, 4775.8 kPa, Liquid	993.1
358 K, 4809.3 kPa, Liquid	994.65
358 K, 4843.6 kPa, Liquid	996.44
358 K, 4876.3 kPa, Liquid	997.93
358 K, 4910.7 kPa, Liquid	999.61
358 K, 4945.1 kPa, Liquid	1001.33
358 K, 4979.1 kPa, Liquid	1002.85
358 K, 5028.3 kPa, Liquid	1005.04
358 K, 5084.7 kPa, Liquid	1007.62
358 K, 5195.4 kPa, Liquid	1012.4
358 K, 5249.7 kPa, Liquid	1014.83
358 K, 5306.8 kPa, Liquid	1017.1
358 K, 5363.6 kPa, Liquid	1019.45
358 K, 5416.2 kPa, Liquid	1021.54
358 K, 5474.6 kPa, Liquid	1023.85
358 K, 5533.9 kPa, Liquid	1026.1
358 K, 5592 kPa, Liquid	1028.23
358 K, 5702.1 kPa, Liquid	1032.29
358 K, 5755.2 kPa, Liquid	1034.16
358 K, 5815.3 kPa, Liquid	1036.29
358 K, 5871.8 kPa, Liquid	1038.22
358 K, 5932.6 kPa, Liquid	1040.24
358 K, 5991.6 kPa, Liquid	1042.28
358 K, 6074.8 kPa, Liquid	1044.98
358 K, 6112.3 kPa, Liquid	1046.22
358 K, 6149.2 kPa, Liquid	1047.34
358 K, 6186.4 kPa, Liquid	1048.47
358 K, 6224.4 kPa, Liquid	1049.67
358 K, 6266.3 kPa, Liquid	1050.92
358 K, 6304.3 kPa, Liquid	1052.13
358 K, 6342.4 kPa, Liquid	1053.2
358 K, 6379.7 kPa, Liquid	1054.31
358 K, 6416.4 kPa, Liquid	1055.29
358 K, 6452.8 kPa, Liquid	1056.39
358 K, 6490 kPa, Liquid	1057.54
358 K, 6563.2 kPa, Liquid	1059.62
358 K, 6600.1 kPa, Liquid	1060.63
358 K, 6637.3 kPa, Liquid	1061.72
358 K, 6674.3 kPa, Liquid	1062.71
358 K, 6711.6 kPa, Liquid	1063.79
358 K, 6747.9 kPa, Liquid	1064.77
358 K, 6784.3 kPa, Liquid	1065.78
358 K, 6821 kPa, Liquid	1066.78
358 K, 6857.4 kPa, Liquid	1067.85
358 K, 6894.7 kPa, Liquid	1068.84
358 K, 6931.9 kPa, Liquid	1069.87
358 K, 6970.4 kPa, Liquid	1070.83
358 K, 7006.9 kPa, Liquid	1071.75
358 K, 7152.9 kPa, Liquid	1075.52
358 K, 7190.1 kPa, Liquid	1076.36
358 K, 7228 kPa, Liquid	1077.43
358 K, 7266.4 kPa, Liquid	1078.28
358 K, 7303.8 kPa, Liquid	1079.27
358 K, 7341.7 kPa, Liquid	1080.24
358 K, 7379.5 kPa, Liquid	1081.09
358 K, 7418.9 kPa, Liquid	1082.02
358 K, 7494.3 kPa, Liquid	1083.92
358 K, 7532.3 kPa, Liquid	1084.8
358 K, 7568.4 kPa, Liquid	1085.67
358 K, 7605.7 kPa, Liquid	1086.46
358 K, 7643.1 kPa, Liquid	1087.34
358 K, 7680.1 kPa, Liquid	1088.21
358 K, 7718 kPa, Liquid	1089.17
358 K, 7755.4 kPa, Liquid	1089.97
358 K, 7792.1 kPa, Liquid	1090.77
358 K, 7828.3 kPa, Liquid	1091.56
358 K, 7903.4 kPa, Liquid	1093.29
358 K, 7941.2 kPa, Liquid	1094.08
358 K, 7980.6 kPa, Liquid	1094.93
358 K, 8017.9 kPa, Liquid	1095.72
358 K, 8056.1 kPa, Liquid	1096.58
358 K, 8093.2 kPa, Liquid	1097.39
358 K, 8130.7 kPa, Liquid	1098.19
358 K, 8167.5 kPa, Liquid	1098.98
358 K, 8204.2 kPa, Liquid	1099.77
358 K, 8277.6 kPa, Liquid	1101.37
358 K, 8354.7 kPa, Liquid	1102.88
358 K, 8391 kPa, Liquid	1103.6
358 K, 8427.7 kPa, Liquid	1104.39
358 K, 8465.5 kPa, Liquid	1105.17
358 K, 8503.3 kPa, Liquid	1105.96
358 K, 8541.1 kPa, Liquid	1106.74
358 K, 8614.7 kPa, Liquid	1108.07
358 K, 8651.4 kPa, Liquid	1108.96
358 K, 8689.1 kPa, Liquid	1109.62
358 K, 8725.5 kPa, Liquid	1110.44
358 K, 8762.8 kPa, Liquid	1111.12
358 K, 8836.9 kPa, Liquid	1112.57
358 K, 8873.4 kPa, Liquid	1113.15
358 K, 8910.1 kPa, Liquid	1113.92
358 K, 8946.4 kPa, Liquid	1114.65
358 K, 8982.6 kPa, Liquid	1115.32
358 K, 9019.5 kPa, Liquid	1115.96
358 K, 9058.4 kPa, Liquid	1116.68
358 K, 9094.5 kPa, Liquid	1117.44
358 K, 9170.1 kPa, Liquid	1118.78
358 K, 9207.6 kPa, Liquid	1119.39
358 K, 9244 kPa, Liquid	1120.02
358 K, 9318.1 kPa, Liquid	1121.42
358 K, 9355.8 kPa, Liquid	1122.09
358 K, 9393.2 kPa, Liquid	1122.82
358 K, 9429.9 kPa, Liquid	1123.38
358 K, 9506 kPa, Liquid	1124.84
358 K, 9543.2 kPa, Liquid	1125.38
358 K, 9579.6 kPa, Liquid	1126.21
358 K, 9653.1 kPa, Liquid	1127.35
358 K, 9689.3 kPa, Liquid	1128.07
358 K, 9728 kPa, Liquid	1128.56
358 K, 9764.4 kPa, Liquid	1129.27
358 K, 9801.8 kPa, Liquid	1129.98
358 K, 9839.1 kPa, Liquid	1130.57
358 K, 9875.2 kPa, Liquid	1131.06
358 K, 9913 kPa, Liquid	1131.87
358 K, 9951.5 kPa, Liquid	1132.43
358 K, 9988 kPa, Liquid	1133.16
358.16 K, 4.9 kPa, Fluid (supercritical or subcritical phases)	0.14
358.16 K, 5.8 kPa, Fluid (supercritical or subcritical phases)	0.15
358.16 K, 6.2 kPa, Fluid (supercritical or subcritical phases)	0.17
